This note sets out measurements from patent US9617244B2, “Antibacterial quinoline derivatives” (JANSSEN PHARMACEUTICA NV, priority 2012, dated 2017).

The subject of data set [1] is Staphylococcus aureus (ATCC29213). Put plainly: In-vitro anti-bacterial activity, microtitre plate assay, IC90 determination (non-mycobacterial strains). The class given is cell-based. The settings on record: 90% inhibitory concentration for bacterial growth, resazurin fluorescence; for IC90: Staphylococcus aureus, ATCC29213, 24 h, read-out: IC90 STA B29213; for IC90 STA B29213: 24 hours. Summed up:
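Growth inhibition measured fluorometrically with resazurin (530/590 nm) after overnight 37 °C incubation under normal atmosphere. Bacteria added at roughly 100 TCID50 per well in Mueller-Hinton broth to five-fold compound dilution series; IC90 reported in μg/ml.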
For orientation: Resazurin is reduced to fluorescent resorufin, in cell work by metabolically active cells.

Data set [2] relates to Mycobacterium smegmatis (ATCC607). Put plainly: In-vitro anti-bacterial activity against strain M. Smegmatis ATCC607. The settings on record: 90% inhibitory concentration for bacterial growth, Alamar Blue fluorescence; for IC90: Mycolicibacterium smegmatis, ATCC607, 48 h, read-out: IC90 MSM 607; for IC90 MSM 607: 48 hours. The class given is cell-based. Summed up:
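IC90 (μg/ml) derived from Alamar Blue fluorescence (530/590 nm) after 48 h growth at 37 °C under 5% CO2. About 250 CFU per well in Mueller-Hinton broth faced five-fold serial compound dilutions in BSA-containing wells.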

Structures are written as SMILES. Values after ≈ are worked out from the molar mass of the structure shown. A value given as a limit tells only on which side of the number the result lay.

As a reminder, the IC90 is the concentration at which the effect reaches the 90% level. As a reminder, the melting point is the temperature, or range, at which the solid turns liquid. Take `COc1nc2ccc(S(C)(=O)=O)cc2cc1C(c1ccc(Cl)cc1)C1(O)CCNCC1(C)C` (stereo not drawn) [Compound 397]: the melting point amounted to 180 °C. For the same molecule, the IC90 in data set [1] is over 12.3 µg/mL. Also, the IC90 in data set [2] is over 12.3 µg/mL.

Molecule `COc1nc2ccc(F)cc2cc1C(c1ccc(SC)cc1)C1(O)CCNC(c2ccc(F)cc2C)C1` (stereo not drawn) [Compound 406] returned a melting point of 206 °C. Also, the IC90 in data set [1] is 3.29 µg/mL (≈ 6.32 µM). The “IC90 MSM 607” value in data set [2] was 2.61 µg/mL (≈ 5.01 µM).

Molecule `COc1nc2ccc(F)cc2cc1C(c1ccc(S(C)(=O)=O)cc1)C1(O)CCNC(c2ccc(F)cc2C)C1` (stereo not drawn) [Compound 417] had a melting point of 150 °C. In data set [1], the IC90 is over 13.9 µg/mL. For the same molecule, the IC90 in data set [2] was over 13.9 µg/mL.

`COc1nc2ccc(F)cc2cc1C(c1ccc(S(C)(=O)=O)cc1)C1(O)CCNC(c2ccc(F)cc2C)C1` (stereo not drawn) [Compound 419] returned a melting point of 154 °C. In data set [1], the “IC90 STA B29213” value was 11.03 µg/mL (≈ 20 µM). In addition, the “IC90 MSM 607” value in data set [2] was 11.03 µg/mL (≈ 20 µM).

The molecule `COc1nc2ccc(Cl)cc2cc1C(c1ccc(Cl)cc1)C1(O)CCNCC1C` (stereo not drawn) [Compound 423] yielded a melting point of 174 °C. Moreover, the “IC90 STA B29213” value in data set [1] came out at 5.43 µg/mL (≈ 12.6 µM). Moreover, the “IC90 MSM 607” value in data set [2] worked out at 3.43 µg/mL (≈ 7.95 µM).

`COc1nc2ccc(Br)cc2cc1C(c1ccccc1)C1(O)CCNCC1C` (stereo not drawn) [Compound 425] returned a melting point of 125 °C. The IC90 in data set [1] was over 11.1 µg/mL. Further, the IC90 in data set [2] was over 11.1 µg/mL.

`COc1nc2ccc(Br)cc2cc1C(c1ccccc1)C1(O)CCNCC1C` (stereo not drawn) [Compound 426] returned a melting point of 174 °C. Further, in data set [1], the “IC90 STA B29213” value is over 11.09 µg/mL. In addition, in data set [2], the “IC90 MSM 607” value was over 11.09 µg/mL.

For the molecule `COc1nc2ccc(Cl)cc2cc1C(c1ccc(Cl)cc1)C1(O)CCNCC1Cc1ccccn1` (stereo not drawn) [Compound 433], the melting point is 114 °C. Besides, the “IC90 STA B29213” value in data set [1] came out at 6.40 µg/mL (≈ 12.6 µM). The IC90 in data set [2] amounted to 4.04 µg/mL (≈ 7.95 µM).

With `COc1nc2ccc(Cl)cc2cc1C(c1ccc(Cl)cc1)C1(O)CCNCC1Cc1ccccn1` (stereo not drawn) [Compound 434], the melting point was determined as 197 °C. Moreover, the “IC90 STA B29213” value in data set [1] came to 3.21 µg/mL (≈ 6.31 µM). Further, the “IC90 MSM 607” value in data set [2] was 3.21 µg/mL (≈ 6.31 µM).

In the case of `COc1nc2ccc(Cl)cc2cc1C(c1ccc(Cl)cc1)C1(O)CCNC(CO)C1` (stereo not drawn) [Compound 435], the melting point was found to be 140 °C. The IC90 in data set [1] came to 5.63 µg/mL (≈ 12.6 µM). In addition, in data set [2], the IC90 turned out to be 3.99 µg/mL (≈ 8.92 µM).

`O=c1[nH]c2ccc(Cl)cc2cc1C(c1ccc(Cl)cc1)C1(O)CCNC(CO)C1` (stereo not drawn) [Compound 446] came in with a melting point of 210 °C. The “IC90 STA B29213” value in data set [1] came to 10.89 µg/mL (≈ 25.1 µM). In data set [2], the IC90 stood at 5.46 µg/mL (≈ 12.6 µM).

`COc1nc2ccc(S(C)(=O)=O)cc2cc1C(c1ccc(Cl)cc1)C1(O)CCNCC1Cc1cccc[n+]1[O-]` (stereo not drawn) [Compound 447] displayed a melting point of 234 °C. In addition, in data set [1], the “IC90 STA B29213” value was over 14.27 µg/mL. For the same molecule, the “IC90 MSM 607” value in data set [2] was over 14.27 µg/mL.

The molecule `COc1nc2ccc(S(C)(=O)=O)cc2cc1C(c1ccc(Cl)cc1)C1(O)CCNCC1Cc1cccc[n+]1[O-]` (stereo not drawn) [Compound 448] displayed a melting point of 182 °C. The “IC90 STA B29213” value in data set [1] is over 14.27 µg/mL. For the same molecule, the “IC90 MSM 607” value in data set [2] is over 14.27 µg/mL.

The molecule `COc1nc2ccc(Cl)cc2cc1C(c1ccc(Cl)cc1)C1(O)CCNCC1F` (stereo not drawn) [Compound 449] returned a melting point of 190 °C. For the same molecule, the “IC90 STA B29213” value in data set [1] came to 5.48 µg/mL (≈ 12.6 µM). For the same molecule, the “IC90 MSM 607” value in data set [2] was 2.75 µg/mL (≈ 6.32 µM).

With `COc1nc2ccc(Cl)cc2cc1C(c1ccc(Cl)cc1)C1(O)CCNCC1F` (stereo not drawn) [Compound 450], the melting point was determined as 200 °C. In data set [1], the “IC90 STA B29213” value is 8.69 µg/mL (≈ 20 µM). Further, the “IC90 MSM 607” value in data set [2] came to 4.35 µg/mL (≈ 9.99 µM).

The molecule `COc1nc2ccc(Cl)cc2cc1C(c1ccc(Cl)cc1)C1(O)CCNCC1F` (stereo not drawn) [Compound 451] returned a melting point of 110 °C. Also, the “IC90 STA B29213” value in data set [1] came out at 5.48 µg/mL (≈ 12.6 µM). Besides, in data set [2], the “IC90 MSM 607” value was determined as 2.18 µg/mL (≈ 5.01 µM).
